Active and inactive are the calls of the source. The rule behind the calls is not given here.
Assays:
Leishmania infantum [1] = test: Antileishmanial activity against Leishmania infantum MHOM/BR/1972/LD amastigotes infected in BALB/c mouse peritoneal macrophages assessed as parasite viability up to 200 uM after 72 hrs by Giemsa staining-based light microscopic analysis; type: functional, organism-based
Trypanosoma cruzi [2] = test: Antitrypanosomal activity against Trypanosoma cruzi Y trypomastigotes assessed as parasite viability up to 200 uM after 24 hrs by resazurin staining-based hemocytometric analysis; type: functional, organism-based
Leishmania infantum [3] = test: Antileishmanial activity against Leishmania infantum MHOM/BR/1972/LD promastigotes assessed as parasite viability up to 200 uM after 48 hrs by MTT assay; type: functional, organism-based
L929 = test: Cytotoxicity against mouse NCTC-929 cells after 72 hrs by MTT assay; type: cell-based; conditions: L929, 72 h
[4] = Selectivity index, ratio of IC50 for mouse NCTC-929 cells to IC50 for Trypanosoma cruzi Y trypomastigotes; type: toxicity; conditions: NCTC-929 cells versus Trypanosoma cruzi Y trypomastigotes, read-out: Ratio IC50
Trypanosoma cruzi [5] = test: Antitrypanosomal activity against Trypanosoma cruzi Y trypomastigotes assessed as parasite viability after 24 hrs by resazurin staining-based hemocytometric analysis; type: functional, organism-based
Leishmania infantum [6] = test: Antileishmanial activity against Leishmania infantum MHOM/BR/1972/LD promastigotes assessed as parasite viability after 48 hrs by MTT assay; type: functional, organism-based
[7] = Selectivity index, ratio of IC50 for mouse NCTC-929 cells to IC50 for Leishmania infantum MHOM/BR/1972/LD amastigotes infected in BALB/C mouse peritoneal macrophages; type: toxicity; conditions: read-out: Ratio IC50
Leishmania infantum [8] = test: Antileishmanial activity against Leishmania infantum MHOM/BR/1972/LD amastigotes infected in BALB/c mouse peritoneal macrophages assessed as parasite viability after 72 hrs by Giemsa staining-based light microscopic analysis; type: functional, organism-based
Trypanosoma cruzi [9] = test: Induction of mitochondrial membrane hyperpolarization in Trypanosoma cruzi Y trypomastigotes assessed as increase in fluorescence at IC50 after 2 hrs by rhodamine123/propidium iodide staining-based flow cytometric analysis relative to control; type: functional
Trypanosoma cruzi [10] = test: Induction of mitochondrial membrane hyperpolarization in Trypanosoma cruzi Y trypomastigotes assessed as increase in fluorescence at IC90 after 2 hrs by rhodamine123/propidium iodide staining-based flow cytometric analysis relative to control; type: functional
Mus musculus [11] = test: Hepatotoxicity in BALB/c mouse infected with Trypanosoma cruzi Y assessed as hydropic degeneration of hepatocytes at 30 mg/kg/day, ip dosed for 10 consecutive days by hematoxylin and eosin staining-based light microscopic analysis; type: toxicity, organism-based; conditions: in vivo
Trypanosoma cruzi [12] = test: Antitrypanosomal activity against Trypanosoma cruzi Y intracellular amastigotes infected in BALB/c mouse peritoneal macrophages at 25 uM after 48 hrs by Giemsa staining-based light microscopic analysis; type: functional
Trypanosoma cruzi [13] = test: Antitrypanosomal activity against Trypanosoma cruzi Y infected in BALB/c mouse assessed as reduction in blood parasitemia at 30 mg/kg, ip administered every day starting on day 5 post infection measured on day 8 post infection; type: functional, organism-based
Trypanosoma cruzi [14] = test: Antitrypanosomal activity against Trypanosoma cruzi Y infected in BALB/c mouse assessed as reduction in blood parasitemia at 30 mg/kg/day, ip dosed administered for 10 consecutive days starting on day 5 post infection measured on day 14 post infection relative to control; type: functional; design: scale not given: the % may be the effect or the level left
Trypanosoma cruzi [15] = test: Induction of plasma membrane permeabilization in Trypanosoma cruzi Y trypomastigotes at IC50 to IC90 measured every 1 hr up to 7 hrs by Sytox Green staining-based fluorimetric analysis; type: functional, organism-based
Trypanosoma cruzi [16] = test: Potency index, ratio of benznidazole IC50 to test compound IC50 for Trypanosoma cruzi Y trypomastigotes; type: functional
Trypanosoma cruzi [17] = test: Induction of mitochondrial membrane hyperpolarization in Trypanosoma cruzi Y trypomastigotes after 1 hr by rhodamine123/propidium iodide staining-based flow cytometric analysis; type: functional, organism-based
Mus musculus [18] = test: Toxicity in BALB/c mouse infected with Trypanosoma cruzi Y assessed as mortality at 30 mg/kg/day, ip administered for 10 consecutive days starting on day 5 post infection measured during compound dosing; type: organism-based; conditions: in vivo
Trypanosoma cruzi [19] = test: Antitrypanosomal activity against Trypanosoma cruzi Y infected in BALB/c mouse assessed as reduction in blood parasitemia at 100 mg/kg, po administered every day starting on day 5 post infection measured on day 8 post infection; type: functional; design: scale not given: the % may be the effect or the level left
Mus musculus [20] = test: Toxicity in BALB/c mouse infected with Trypanosoma cruzi Y assessed as mortality at 100 mg/kg/day, po administered for 10 consecutive days starting on day 5 post infection measured during compound dosing; type: organism-based; conditions: in vivo
Trypanosoma cruzi [21] = test: Antitrypanosomal activity against Trypanosoma cruzi Y infected in BALB/c mouse assessed as reduction in blood parasitemia at 100 mg/kg/day, […] dosed administered for 10 consecutive days starting on day 5 post infection measured on day 14 post infection relative to control; type: functional; design: scale not given: the % may be the effect or the level left

| Compound | Activity (Leishmania infantum [1]) | Activity (Trypanosoma cruzi [2]) | Activity (Leishmania infantum [3]) | IC50 (L929) [µM] | selectivity ratio [4] | IC50 (Trypanosoma cruzi [5]) [µM] | other results |
| --- | --- | --- | --- | --- | --- | --- | --- |
| Cc1cc(O)c(C(=O)Nc2ccc3c(c2)OCO3)c(=O)o1 | inactive | inactive | inactive | > 200 | – | – | – |
| CCCCCCCCCCCCCCCCc1c(O)cc(C)oc1=O | inactive | – | inactive | 38.2 | 1.4 | 26.6 | – |
| CCCCCCCCCCc1c(O)cc(C)oc1=O | inactive | inactive | – | 56 | – | – | IC50 (Leishmania infantum [6]): 118 µM |
| CCCCCCNC(=O)c1c(O)cc(C)oc1=O | – | – | inactive | 196 | 2.7 | 72.6 | selectivity ratio [7]: 3.6; IC50 (Leishmania infantum [8]): 54 µM |
| CCCCCCCCCCCC(=O)c1c(O)cc(C)oc1=O | inactive | – | inactive | 90.3 | 71.1 | 1.3 | – |
| CCCCCCCC(=O)c1c(O)cc(C)oc1=O | inactive | – | inactive | 140 | 5.4 | 25.7 | – |
| Cc1cc(O)c(C(=S)NC2CCCCC2)c(=O)o1 | inactive | – | inactive | 177 | 1.9 | 90.5 | – |
| CCCCCCCCCCCCCC(=O)c1c(O)cc(C)oc1=O | inactive | – | inactive | > 200 | > 77.5 | 2.6 | Activity (Trypanosoma cruzi [9]): 25%; Activity (Trypanosoma cruzi [10]): 26%; Activity (Mus musculus [11]): Non-Toxic; Activity (Trypanosoma cruzi [12]): 14%; Activity (Trypanosoma cruzi [13]): inactive; Activity (Trypanosoma cruzi [14]): 55%; Activity (Trypanosoma cruzi [15]): inactive; Ratio IC50 (Trypanosoma cruzi [16]): 6; Activity (Trypanosoma cruzi [17]): Dose-dependent effect; Activity (Mus musculus [18]): Non-Toxic |
| Cc1cc(O)c(C(=O)CCC2CCCCC2)c(=O)o1 | – | – | inactive | 117 | 26.8 | 4.4 | selectivity ratio [7]: 2.9; IC50 (Leishmania infantum [8]): 39.2 µM |
| CCCCCCCNC(=O)c1c(O)cc(C)oc1=O | inactive | – | inactive | 187 | 2.4 | 78.1 | – |
| Cc1cc(O)c(CCC2CCCCC2)c(=O)o1 | inactive | – | inactive | 109 | 3.4 | 32.2 | – |
| CCCCCCCCCCCCCCNC(=O)c1c(O)cc(C)oc1=O | inactive | inactive | inactive | > 200 | – | – | – |
| O=C(Cn1ccnc1[N+](=O)[O-])NCc1ccccc1 [BENZNIDAZOLE] | – | – | – | > 200 | > 36 | 16.2 | Activity (Trypanosoma cruzi [19]): 100%; Activity (Mus musculus [20]): Non-Toxic; Activity (Trypanosoma cruzi [21]): 100% |
| Cc1cc(O)c(C(=O)C2CCCCC2)c(=O)o1 | inactive | inactive | inactive | > 200 | – | – | – |
| CCCCCCCCCC(=O)c1c(O)cc(C)oc1=O | inactive | – | inactive | 134 | 7.6 | 17.5 | – |
| Cc1cc(O)c(C(=O)NCCc2ccccc2)c(=O)o1 | – | inactive | inactive | 178 | – | – | selectivity ratio [7]: 3.8; IC50 (Leishmania infantum [8]): 46.8 µM |
| Cc1cc(O)c(C(=O)Nc2ccccc2)c(=O)o1 | inactive | inactive | inactive | > 200 | – | – | – |
| CCCCCCc1c(O)cc(C)oc1=O | inactive | inactive | inactive | > 200 | – | – | – |
| Cc1cc(O)c(C(=S)Nc2ccccc2)c(=O)o1 | – | inactive | inactive | > 200 | – | – | IC50 (Leishmania infantum [8]): > 100 µM |
| CCCCCCCCCCCCCCCCOP(=O)([O-])OCC[N+](C)(C)C [MILTEFOSINE] | – | – | – | 241 | 32.6 | – | IC50 (Leishmania infantum [6]): 16.2 µM; IC50 (Leishmania infantum [8]): 7.4 µM |
| CCCCCC(=O)c1c(O)cc(C)oc1=O | – | inactive | inactive | > 200 | – | – | selectivity ratio [7]: > 14.5; IC50 (Leishmania infantum [8]): 13.8 µM |
| Cc1cc(O)c(C(=O)NCc2ccccc2)c(=O)o1 | – | inactive | inactive | > 200 | – | – | selectivity ratio [7]: 5; IC50 (Leishmania infantum [8]): 52.8 µM |
| CCCCCCCCCCCCCCc1c(O)cc(C)oc1=O | inactive | – | inactive | 24.1 | 4.9 | 4.9 | – |
| Cc1cc(O)c(C(=O)NCCCc2ccccc2)c(=O)o1 | inactive | – | inactive | 143 | 1.7 | 81.4 | – |
| CCCCCCCCCCCCc1c(O)cc(C)oc1=O | inactive | – | – | 57.2 | 3.5 | 16.1 | IC50 (Leishmania infantum [6]): 138 µM |
| CCCCCCCCCCCCCCCC(=O)c1c(O)cc(C)oc1=O | inactive | – | inactive | 164 | 2.5 | 66.3 | – |
| Cc1cc(O)c(CC2CCCCC2)c(=O)o1 | inactive | inactive | inactive | > 200 | – | – | – |
| CCCCCCCCc1c(O)cc(C)oc1=O | inactive | – | inactive | 145 | 3.6 | 40 | – |
| Cc1cc(O)c(C(=O)Nc2ccc(OCc3ccccc3)cc2)c(=O)o1 | inactive | inactive | inactive | > 200 | – | – | – |
